The source of these data is patent publication US9499551B2, “Substituted pyrrolo[2,3-b]pyridines for treating cancer or inflammatory diseases” (Confluence Life Sciences, Inc., priority 2014, dated 2016).

Molecules are shown by their SMILES. pIC50: −log10 of the molar value. Some results are limits rather than exact numbers.

This assay addresses T1, TAK1-TAB1 (Homo sapiens, UniProt O43318).
T1 sequence (O43318 with tags, fused parts or gaps limits assumed): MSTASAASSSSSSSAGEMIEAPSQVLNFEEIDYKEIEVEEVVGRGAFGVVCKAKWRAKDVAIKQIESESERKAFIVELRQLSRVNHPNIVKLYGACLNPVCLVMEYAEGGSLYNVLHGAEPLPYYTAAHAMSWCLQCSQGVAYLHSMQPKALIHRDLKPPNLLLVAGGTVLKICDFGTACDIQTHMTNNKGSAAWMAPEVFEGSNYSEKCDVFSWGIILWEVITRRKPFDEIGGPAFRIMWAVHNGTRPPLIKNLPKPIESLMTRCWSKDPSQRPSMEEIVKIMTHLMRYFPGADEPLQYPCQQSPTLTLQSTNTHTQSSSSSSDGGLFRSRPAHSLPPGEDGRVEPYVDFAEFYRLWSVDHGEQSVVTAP
Kind of assay: TAK1-TAB1 binding inhibitory potency (LanthaScreen competitive binding assay, kinase tracer-236). The settings on record: 10 nM TAK1-TAB1, 100 nM kinase tracer-236; read-out: TAK1-Tab Inhibition IC50. An excerpt:
TAK1-TAB1 Binding Inhibitory Potency:
The ability of candidate compounds to interact with TAK1-TAB1 is quantitated by a competitive binding assay using the LanthaScreen technology developed by Life Technologies. This assay is based on the binding of a proprietary, Alexa Fluor® 647-labeled, ATP-competitive kinase inhibitor (kinase tracer-236) to the TAK1-TAB1 construct in presence of a europium-conjugated antibody, resulting in a FRET (fluorescence resonance energy transfer) signal. Displacement of the kinase tracer by compound results in a lower emission ratio upon excitation of the europium chelate. Candidate compounds are designed as potential irreversible inhibitors of TAK1-TAB1, capable of ligating to an active site cysteine residue. The time dependent nature of irreversible inhibition is investigated by performing the binding assay with and without a pre-incubation of compound and TAK1-TAB1.
The inhibitory potency of candidate compounds is measured in 20 mM HEPES pH 7.5, 10 mM MgCl2, 0.01% BSA, 0.0005% Tween-20, and 2% DMSO in the presence of 10 nM TAK1-TAB1, 2 nM Eu-anti-his antibody, and 100 nM kinase tracer-236 using a 384-well plate format. Background signal is defined in the absence of TAK1-TAB1 and uninhibited signal is defined in the presence of vehicle (2% DMSO) alone. Compounds were evaluated in an 11 point dose-response ranging from 20 μM to 0.34 nM. The binding assays are performed under two conditions to evaluate time dependence of inhibition. For the pre-incubation assay, TAK1-TAB1 and Eu-anti-his antibody are preincubated with compound or vehicle for two hours prior to the addition of kinase tracer. The non-preincubated assay is run in which TAK1-TAB1 and Eu-anti-his antibody are added to a mixture of compound and kinase tracer. IC50 values of compounds are determined using a 4 parameter logistical fit of emission ratio as a function of the concentration of compound. […]
On the technique in general: TR-FRET usually uses a lanthanide donor and a delayed reading to cut background.
Turning to `CC(C)c1ccccc1-c1cnc2[nH]cc(/C=C/C(N)=O)c2n1` [Example 359], the pIC50 – broadly, the IC50 on a negative log10 scale, so that one unit is a factor of ten – was not below 6.00.
To `Cc1cc(C2CCC(c3cnc4[nH]cc(/C=C/C(N)=O)c4c3)CC2)cc(C(F)(F)F)c1` (centres unmarked) [Example 358, (E)-3-(5-(4-(3-methyl-5-(trifluoromethyl)phenyl)cyclohexyl)-1H-pyrrolo[2,3-b]pyridin-3-yl)acrylamide] belongs not below 6.00; to `CC(C)(O)c1cccc(-c2cnc3[nH]cc(/C=C(\C#N)C(N)=O)c3c2)c1` [Example 361, (E)-2-cyano-3-(5-(3-(2-hydroxypropan-2-yl)phenyl)-1H-pyrrolo[2,3-b]pyridin-3-yl)acrylamide], not below 6.00.
For the molecule `CN(C)C(=O)c1cnc2[nH]cc(/C=C/C(N)=O)c2c1` [Example 355, (E)-3-(3-amino-3-oxoprop-1-en-1-yl)-N,N-dimethyl-1H-pyrrolo[2,3-b]pyridine-5-carboxamide], the pIC50 was not below 6.00.
For the molecule `NC(=O)/C=C/c1c[nH]c2ncc(-c3ccc(N4CCCCC4)nc3)cc12` [Example 363, (E)-3-(5-(6-(piperidin-1-yl)pyridin-3-yl)-1H-pyrrolo [2,3-b]pyridin-3-yl)acrylamide], the negative-log IC50 (pIC50) was not below 6.00.
To `CC(C)OC(=O)N1CCN(c2cnc3[nH]cc(/C=C/C(N)=O)c3c2)CC1` [Example 301, (E)-isopropyl 4-(3-(3-amino-3-oxoprop-1-en-1-yl)-1H-pyrrolo[2,3-b]pyridin-5-yl)piperazine-1-carboxylate] belongs not below 6.00; to `CC(=O)c1cc(-c2cnc3[nH]cc(/C=C/C(N)=O)c3c2)ccn1` [Example 315, (E)-3-(5-(2-acetylpyridin-4-yl)-1H-pyrrolo[2,3-b]pyridin-3-yl)acrylamide], not below 6.00; to `CC(C)(O)c1ccc(-c2cnc3[nH]cc(/C=C/C(N)=O)c3c2)cn1` [Example 312, (E)-3-(5-(6-(2-hydroxypropan-2-yl)pyridin-3-yl)-1H-pyrrolo[2,3-b]pyridin-3-yl)acrylamide], not below 6.00.
In the case of `NC(=O)/C=C/c1c[nH]c2ncc(-c3ccc(N4CCCC4)nc3)nc12` [Example 254, (E)3-(2-(6-(pyrrolidin-1-yl)pyridin-3-yl)-5H-pyrrolo[2,3-b]pyrazin-7-yl)acrylamide] it was less than 6.00.
In the case of `CC(C)(O)c1ccc(-c2cnc3[nH]cc(/C=C/C(N)=O)c3n2)cc1` [Example 309, (E)-3-(2-(4-(2-hydroxypropan-2-yl)phenyl)-5H-pyrrolo[2,3-b]pyrazin-7-yl)acrylamide], the pIC50 is not below 6.00.
To `CC(C)Cn1cc(-c2cnc3[nH]cc(/C=C/C(N)=O)c3c2)ccc1=O` [Example 326, (E)-3-(5-(1-isobutyl-6-oxo-1,6-dihydropyridin-3-yl)-1H-pyrrolo[2,3-b]pyridin-3-yl)acrylamide] belongs not below 6.00.
On to `CC(=O)c1cccc(N2CCN(c3cnc4[nH]cc(/C=C/C(N)=O)c4c3)CC2)c1` [Example 346, (E)-3-(5-(4-(3-acetylphenyl)piperazin-1-yl)-1H-pyrrolo[2,3-b]pyridin-3-yl)acrylamide], for which the pIC50 is not below 6.00.
For the molecule `COCCN(C)C(=O)c1cnc2[nH]cc(/C=C/C(N)=O)c2c1` [Example 357, (E)-3-(3-amino-3-oxoprop-1-en-1-yl)-N-(2-methoxyethyl)-N-methyl-1H-pyrrolo[2,3-b]pyridine-5-carboxamide], the pIC50 was not below 6.00.
To `C=C(C)C(=O)Nc1c[nH]c2ncc(-c3ccccc3)cc12` [Example 233, N-(5-phenyl-1H-pyrrolo[2,3-b]pyridin-3-yl) methacrylamide] belongs less than 6.00.
For `NC(=O)/C=C/c1c[nH]c2ncc(N3CCN(C(=O)Oc4ccccc4)CC3)cc12` [Example 302, (E)-phenyl 4-(3-(3-amino-3-oxoprop-1-en-1-yl)-1H-pyrrolo[2,3-b]pyridin-5-yl)piperazine-1-carboxylate], the pIC50 was not below 6.00.
Take `NC(=O)/C=C/c1c[nH]c2ncc(-c3ccc(Oc4ccccc4)nc3)cc12` [Example 345, (E)-3-(5-(6-phenoxypyridin-3-yl)-1H-pyrrolo[2,3-b]pyridin-3-yl)acrylamide]: the pIC50 is not below 6.00.
In the case of `CC(=O)c1ccc(-c2cnc3[nH]cc(/C=C/C(N)=O)c3n2)cc1C` [Example 340, (E)-3-(2-(4-acetyl-3-methylphenyl)-5H-pyrrolo[2,3-b]pyrazin-7-yl)acrylamide] it was not below 6.00.
To `CC(=O)c1ccc(-c2cnc3[nH]cc(/C=C/C(N)=O)c3n2)cc1` [Example 307, (E)-3-(2-(4-acetylphenyl)-5H-pyrrolo[2,3-b]pyrazin-7-yl)acrylamide] belongs not below 6.00; to `NC(=O)/C=C\c1c[nH]c2ncc(-c3ccc(C(O)c4nccs4)cc3)cc12` (centres unmarked) [Example 323, (Z)-3-(5-(4-(hydroxy(thiazol-2-yl)methyl)phenyl)-1H-pyrrolo[2,3-b]pyridin-3-yl)acrylamide], not below 6.00.
To `CC(C)(O)c1cc(-c2cnc3[nH]cc(/C=C/C(N)=O)c3c2)ccn1` [Example 317, (E)-3-(5-(2-(2-hydroxypropan-2-yl)pyridin-4-yl)-1H-pyrrolo[2,3-b]pyridin-3-yl)acrylamide] belongs not below 6.00.
For the molecule `CCOCCOc1ccc(-c2cnc3[nH]cc(/C=C/C(N)=O)c3c2)cn1` [Example 336, (E)-3-(5-(6-(2-ethoxyethoxy)pyridin-3-yl)-1H-pyrrolo[2,3-b]pyridin-3-yl)acrylamide], the pIC50 is not below 6.00.
Turning to `NC(=O)/C=C/c1c[nH]c2ncc(N3CC(NC(=O)C4CCCC4)C3)cc12` [Example 321, (E)-N-(1-(3-(3-amino-3-oxoprop-1-en-1-yl)-1H-pyrrolo[2,3-b]pyridin-5-yl)azetidin-3-yl) cyclopentane-carboxamide], the pIC50 is not below 6.00.
To `NC(=O)/C=C/c1c[nH]c2ncc(-c3ccc(C(=O)c4nccs4)cc3)cc12` [Example 324, (E)-3-(5-(4-(thiazole-2-carbonyl)phenyl)-1H-pyrrolo[2,3-b]pyridin-3-yl)acrylamide] belongs not below 6.00; to `N#C/C(=C\c1c[nH]c2ncc(-c3ccc(OCC4CC4)nc3)cc12)C(N)=O` [Example 364, (E)-2-cyano-3-(5-(6-(cyclopropyl-methoxy)pyridin-3-yl)-1H-pyrrolo[2,3-b]pyridin-3-yl)acrylamide], not below 6.00; to `CC(C)(O)c1cccc(-c2cnc3[nH]cc(/C=C/C(N)=O)c3n2)c1` [Example 308, (E)-3-(2-(3-(2-hydroxypropan-2-yl)phenyl)-5H-pyrrolo[2,3-b]pyrazin-7-yl)acrylamide], not below 6.00.
In the case of `O=C(Nc1c[nH]c2ncc(-c3ccccc3)cc12)C1=CCCC1` [Example 232, N-(5-phenyl-1H-pyrrolo[2,3-b]pyridin-3-yl)cyclopent-1-enecarboxamide] it was less than 6.00; in that of `NC(=O)/C=C/c1c[nH]c2ncc(-c3cc(Cl)nc(C(F)(F)F)c3)cc12` [Example 350, (E)-3-(5-(2-chloro-6-(trifluoromethyl)pyridin-4-yl)-1H-pyrrolo[2,3-b]pyridin-3-yl)acrylamide], not below 6.00; in that of `NC(=O)/C=C/c1c[nH]c2ncc(-c3ccc4c(c3)C(=O)CC4)cc12` [Example 352, (E)-3-(5-(3-oxo-2,3-dihydro-1H-inden-5-yl)-1H-pyrrolo[2,3-b]pyridin-3-yl)acrylamide], not below 6.00.
To `NC(=O)/C=C/c1c[nH]c2ncc(-c3cccc(Oc4ccccc4)c3)cc12` [Example 341, (E)-3-(5-(3-phenoxyphenyl)-1H-pyrrolo[2,3-b]pyridin-3-yl)acrylamide] belongs not below 6.00; to `CC#CC(=O)Nc1c[nH]c2ncc(-c3ccccc3)cc12` [Example 237, N-(5-phenyl-1H-pyrrolo[2,3-b]pyridin-3-yl)but-2-ynamide], not below 6.00.
On to `CC(=O)c1ccc(-c2cnc3[nH]cc(/C=C/C(N)=O)c3c2)cc1C` [Example 339, (E)-3-(5-(4-acetyl-3-methylphenyl)-1H-pyrrolo[2,3-b]pyridin-3-yl)acrylamide], for which the pIC50 is not below 6.00.
To `NC(=O)/C=C/c1c[nH]c2ncc(-c3ccc(C(O)c4nccs4)cc3)cc12` (centres unmarked) [Example 322, (E)-3-(5-(4-(hydroxy(thiazol-2-yl)methyl)phenyl)-1H-pyrrolo[2,3-b]pyridin-3-yl)acrylamide] belongs not below 6.00.
